Measurements from US20100209345A1, “Fluorinated Ligands for Targeting Peripheral Benzodiazepine Receptors” (Australian Nuclear Science & Technology Organisation, priority 2006, published 2010).

Assays:
[1] = target: central benzodiazepine receptors; experiment: In vitro binding, [3H]-Flumazenil, brain cortex membrane preparation; conditions: for IC50: [3H]-Flumazenil (2 nM), 25° C., 45 min, read-out: CBR IC50
Protocol: (§1) Non-specific binding was determined with Flumazenil (20 μM). In both cases, incubations were terminated by rapid filtration through Whatman GF/B glass fibre. Filters were immediately washed 3 times with 5 mL ice-cold 50 mM Tris/HCl at pH 7.4. Filters were counted in a β-scintillation counter (Packard) to measure the amount of bound radioactivity. The IC50 of the compounds for the peripheral benzodiazepine binding site and the central benzodiazepine receptor were calculated using Kell 6 software.

[2] = target: T1, peripheral benzodiazepine binding site (Rattus norvegicus, UniProt P16257); experiment: In vitro binding, [3H]-PK11195, kidney membrane preparation; conditions: PBR IC50 (nM), [3H]-PK11195 (2 nM), 4° C., 1 h
T1 construct: diluted kidney membrane preparation (200 μg); from tissue; host or cells: kidney membrane preparation
Protocol: Non-specific binding was determined with PK11195 (10 μM).
as §1

CC(C)NC(=O)Cc1c(-c2ccc(OCCF)cc2)nc2ccc(Cl)cn12 [PBR110, 2-(2-(4-(2-fluoroethoxy)phenyl)-6-chloroimidazo[1,2-a]pyridin-3-yl)-N-isopropylacetamide]
chromatographic logP (LogP HPLC): 2.74 ± 0.09 | IC50 [1]: 2740 nM | IC50 [2]: 14.1 nM

CN(C(=O)Cc1c(-c2ccc(OCCF)cc2)nc2c(Cl)cc(Cl)cn12)c1ccccc1 [PBR 143, 2-(2-(4-(2-fluoroethoxy)phenyl)-6,8-dichloroimidazo[1,2-a]pyridin-3-yl)-N-methyl-N-phenylacetamide]
chromatographic logP (LogP HPLC): 3.85 ± 0.12 | CBR, % @ 10^−5M ([1]; @ 10^−5M, [3H]-Flumazenil): 50% @ 10^−5M | IC50 [2]: 6.4 nM

CCN(C)C(=O)Cc1c(-c2ccc(OCCF)cc2)nc2ccc(Cl)cn12 [PBR107, 2-(2-(4-(2-fluoroethoxy)phenyl)-6-chloroimidazo[1,2-a]pyridin-3-yl)-N-ethyl-N-methylacetamide]
chromatographic logP (LogP HPLC): 2.34 ± 0.07 | IC50 [1]: 1390 nM | IC50 [2]: 54.8 nM

O=C(Cc1c(-c2ccc(OCCF)cc2)nc2ccc(Cl)cn12)N1CCCC1 [PBR104, 2-(2-(4-(2-fluoroethoxy)phenyl)-6-chloroimidazo[1,2-a]pyridin-3-yl)-1-(pyrrolidin-1-yl)ethanone]
chromatographic logP (LogP HPLC): 2.45 ± 0.08 | IC50 [1]: 1640 nM | IC50 [2]: 575 nM

CCN(CC)C(=O)Cc1c(-c2ccc(C(C)(C)C)cc2)nc2ccc(F)nn12 [PBR 132, 2-(2-(4-tert-butylphenyl)-6-fluoroimidazo[1,2-b]pyridazin-3-yl)-N,N-diethylacetamide]
chromatographic logP (LogP HPLC): 3.6 ± 0.11 | IC50 [1]: 343 nM | IC50 [2]: 38 nM

CCN(CC)C(=O)Cc1c(-c2ccc(C(C)(C)C)cc2)nc2ccc(F)nn12 [Compound 1, reference compound]
IC50 [1]: 340 nM | IC50 [2]: 29 nM
